Where “and” joins values, the source holds several entries; their conditions need not be identical. Equal entries are not always repeated. Where two headings read alike, the source gives them in different places.
Tests used:
[1] = molecular target: T1, EBNA1 DNA binding domain (DBD) (Epstein-Barr virus, UniProt P03211); experiment: EMSA of EBNA1-DNA binding; details: Fig. 3
T1 construct: 246 nM EBNA1 DBD (aa 459–607); hexa-histidine (N); made in house; host or cells: E. coli
Method: (§1) An EMSA reaction buffer was prepared containing 20% Glycerol, 200 mM NaCl, 20 mM Tris-Cl pH 7.4, 1 mM DTT, 10 ug/mL BSA, 10 nM Cy5 oligonucleotide probe and with or without 246 nM EBNA1 DBD or 300 nM Zta full length purified recombinant protein. This solution was incubated for 20 minutes at room temperature to ensure binding. 30 uL of this solution was dispensed to eppendorf tubes containing 0.5 uL of a test compound in DMSO and mixed. Samples were then loaded onto a 6% polyacrylamide gel in 1/2X Tris-Borate buffer and electrophoresed for 90 min at 170 V. The gel was then scanned for flouresence using at Typhoon Imager (GE Healthcare).
(§2) To determine IC50s, an 11- point series of 2-fold dilutions in DMSO was performed in duplicate starting at an initial concentration of 50 mM using a Janus Verispan (Perkin Elmer) to create a master plate. From this master plate 0.5 uL was transfered to black opaque 384 well Optiplate (Perkin Elmer) using a Janus MDT (Perkin Elmer) or to microfuge tubes by hand. The plate or microfuge tubes were assayed using the FP and EMSA protocols described above. […] The data was calculated as percentage of EBNA1 binding activity and then plotted versus the log of the concentration of inhibitor. Using GraphPad Prism 5.0 software the plotted data was fit with a Hill-Slope dose-response curve to calculate the relative IC50.

[2] = molecular target: T2, Zta (Epstein-Barr virus, UniProt P03206); experiment: Fluorescence polarization (FP) assay of Zta-DNA binding (specificity control); details: for IC50: inhibitor 833 to 7 µM, 2-fold dilutions, 300 nM Zta, read-out: IC50, inhibition of Zta-DNA binding (FP, Fig. 3 panel B)
T2 construct: 300 nM ZTA full length purified recombinant protein; Hexa-His; made in house; host or cells: E. coli
Method: (§3) The EBNA1 DNA binding domain (DBD) (aa 454–607) with a hexa-histidine amino-terminal fusion protein was expressed in E. coli and purified over Ni-NTA agarose according to manufacturers recommendations (Qiagen). The protein was purified from four liters of E. coli to generate ∼20 mg of highly purified EBNA1 protein, estimated to be >90% pure. Purified protein was then dialyzed into a buffer consisting of 200 mM NaCl, 20 mM, Tris-HCl pH 7.4 and 20% Glycerol. Hexa-His tagged Zta was purified from E. coli to near homogeneity, similar to EBNA1 protein. Purified Zta was dialyzed into 500 mM NaCl, Tris-HCl pH 7.4 and 20% Glycerol.
(§4) A reaction mix containing 200 mM NaCl, 20 mM Tris-Cl pH 7.4, 1 mM DTT, 10 ug/mL BSA, 10 nM Cy5 5′ modified EBNA1 (Cy5-GGGTAGCATATGCTATCTagatagcatatgctaccc) or ZTA (Cy5-CACTGACTCATTaatgagtcagtg binding site) oligonucleotide hairpins (purchased from IDT) and 246 nM EBNA1 DBD (aa 459–607) or 300 nM ZTA full length purified recombinant protein was incubated for 20 minutes at room temperature prior to dispensing (BioTek MicroFlo Select) 30 uL to each well of a 384 well black opaque microtiter plate containing the test compounds. Test plates were centrifuged at 165×g prior to fluoresence polarizaration measurements in an Envision Xciter multilable plate reader (Perkin Elmer) using a Cy5 FP 620 excitation and Cy5 FP P/S-pol 688 emission filters.
as §2

[3] = molecular target: T1, EBNA1 DNA binding domain (DBD); experiment: Fluorescence polarization (FP) assay of EBNA1-DNA binding
Method: as §3, §4, §2

[4] = tested on: EBV genome copy number in the Raji Burkitt lymphoma cell line; experiment: Raji EBV genome copy number assay; format: cell-based, Epstein-Barr virus; details: six days, Raji cells, real time PCR EBV DNA (DS) relative to actin
Method: To further evaluate the ability of these compounds to inhibit the EBNA1 function required for EBV genome replication, we assayed their effect on EBV genome copy number in the Raji Burkitt lymphoma cell line (Fig. 5). Raji cells typically contain ∼100 copies of the EBV genome per cell. […] Therefore, we assessed the effects of HU, SC7, SC11, and SC19 on EBV copy number in Raji cells. Cells were treated with 10 µM SC7, SC11, SC19 or with 100 µM HU for six days. The EBV genome copy number was determined by real time PCR for EBV DNA (DS) relative to cellular actin DNA.
Raji cells (purchased from ATCC) were grown at 5×10^6 cells/ml in RPMI media supplemented with 10% FBS and 10 mM Streptomycin and 10 mm Penicillin. Test compounds were added to achieve a final concentration of 10 uM. Cells were grown at 37°C for three days and then passaged 1∶10 into fresh media with the same concentration of drug. After a second 3-day incubation cells were harvested and the DNA was isolated using ChIP Lysis Buffer followed by sonication, phenol∶chloroform extraction, and ethanol precipitation. Relative EBV DNA copy number was quantified by real-time PCR with primers for cellular actin and the EBV dyad-symmetry region, as described previously.

[5] = tested on: EBNA1 transcription activation of Cp; experiment: EBNA1 transcription activation assay (OriP-Cp-Luciferase reporter) in HEK293T cells; format: cell-based, Epstein-Barr virus; details: 5 µM compound, 48 hrs, transfected HEK293T cells
Method: (§5) SC7, SC11, and SC19 were assayed for their ability to inhibit EBNA1 in two cell-based assays. Transcription activation of the EBV Cp promoter by EBNA1 is known to be essential for B-cell immortalization. We therefore assayed the effect of compounds to inhibit EBNA1 transcription activation of Cp using a luciferase reporter-based assay in transiently transfected HEK293T cells (Fig. 4). The luciferase reporter plasmid consisted of a ∼2 kb region of EBV containing both OriP and Cp fused upstream of the luciferase gene. Cotransfection of this plasmid with an EBNA1 expression plasmid produced a 4–5 fold increase in luciferase activity relative to control expression vector lacking EBNA1 (data not shown). Incubation of transfected cells with control vehicle DMSO had no effect on EBNA1 transcription activation. […] As a control for specificity, the same compounds were assayed for their inhibition of Zta transcription activation. Zta is a potent transcription activator of the EBV BHLF1 promoter. We therefore assayed these compounds for their effect on Zta transactivation of BHLF1 promoter fused to luciferase reporter gene.
(§6) HEK293T cells (purchased from ATCC) were seeded in 24-well plates at a density of 50,000 cells/well in DMEM media with 10% FBS. Following an 18 hr incubation at 37°C, cells were transfected using 2 µl of lipofectamine with 0.4 ug/well of a pCMV-FLAG-EBNA1, pCMV-FLAG-ZTA (N362) or a control pCMV-FLAG vector and 0.2 ug/well of either a Cp-Luciferase (EBNA1-reporter) or a HP-Luciferase (Zta-reporter) plasmid. All samples were cotransfected with 100 ng of Renilla expression vector as an internal control for transfection efficiency. After 6 hrs the transfection media was replaced and test compounds were added to achieve a final concentration of 5 uM. Cells were incubated at 37°C for 48 hrs and then harvested. Cells were lysed and prepared for analysis using the Promega Dual Reporter system and luminescence was measured using a Perkin Elmer Wallac Victor^2 1420 Multilabel reader.

[6] = tested on: Zta transactivation of BHLF1 promoter; experiment: Zta transcription activation assay (BHLF1-Luciferase reporter) in HEK293T cells; format: cell-based, Epstein-Barr virus; details: for inhibition at 5 µM: human gammaherpesvirus 4, HEK-293T, 48 h, read-out: Inhibition of Zta transactivation
Method: as §5, §6

[7] = molecular target: T2, Zta; experiment: EMSA of Zta-DNA binding (specificity control)
Method: as §1, §2

[8] = inhibitor 833 to 7 µM, 2-fold dilutions, 246 nM EBNA1 DBD, read-out: IC50, inhibition of EBNA1-DNA binding (FP, Fig. 3 panel A)
[9] = purified EBNA1 DBD, Cy5 DNA hairpin, read-out: IC50, inhibition of EBNA1-DNA binding in FP assay

T2 sequence (P03206 whole entry): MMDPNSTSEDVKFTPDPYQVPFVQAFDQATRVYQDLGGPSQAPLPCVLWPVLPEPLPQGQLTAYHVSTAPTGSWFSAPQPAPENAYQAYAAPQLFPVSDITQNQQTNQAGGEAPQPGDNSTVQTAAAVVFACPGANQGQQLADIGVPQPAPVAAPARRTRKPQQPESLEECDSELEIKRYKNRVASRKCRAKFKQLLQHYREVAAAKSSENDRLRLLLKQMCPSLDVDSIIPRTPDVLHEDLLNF
T1 sequence (P03211 459-607): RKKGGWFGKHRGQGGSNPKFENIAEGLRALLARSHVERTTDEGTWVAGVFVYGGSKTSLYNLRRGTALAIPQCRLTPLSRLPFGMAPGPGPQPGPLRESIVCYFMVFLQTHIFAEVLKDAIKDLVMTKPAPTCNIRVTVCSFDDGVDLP

Compound | Inhibition of EBNA1-DNA binding in EMSA [1] | IC50 [2] [µM] | IC50 [3, 8] [µM] | IC50, inhibition of EBNA1-DNA binding in FP assay ([3]; purified EBNA1 DBD, Cy5 DNA hairpin) | Reduction in EBV genome copy number ([4]; 100 µM HU) [%] | Reduction in EBV genome copy number ([4]; 10 µM compound) | Inhibition of Zta-DNA binding in FP assay [2] | Inhibition of EBNA1 transcription activation [5] | inhibition at 5 µM [6] [%] | IC50 [3, 9] | Inhibition of Zta-DNA binding in EMSA [7] | Inhibition of Zta transactivation ([6]; 5 µM compound, 48 hrs, transfected HEK293T cells)
CC1CCc2c(sc3nc(SCc4ccc5c(c4)OCO5)nc(N)c23)C1 (centres unmarked) [SC27] | highly specific inhibition of EBNA1 | 193 | 546 | did not perform well in the FP assay | – | – | – | – | – | – | – | –
NC(=O)NO [HU, hydroxyurea, reference compound] | – | – | – | – | ~50 | – | – | – | – | – | – | –
CC(=O)Oc1ccc(N(C(C)=O)S(=O)(=O)c2ccc3ccccc3c2)cc1Br [SC7] | – | 300 | 23.7 | – | – | no apparent effect | no significant inhibition | completely blocked | ~60 | 20 to 100 µM and 23 µM | no significant inhibition | –
N#CCc1ccc(NC(=O)c2cc(Cl)ccc2NS(=O)(=O)c2cccc3nsnc23)cc1 [SC19] | – | ~211 | 49.1 | – | – | 75–90% | no significant inhibition | completely blocked | – | 20 to 100 µM and 49 µM | no significant inhibition | no detectable inhibitory effect
CC(=O)Nc1ccc(S(=O)(=O)N2c3ccccc3C(C)=CC2(C)C)cc1 [SC11] | – | 406 | 92.2 | – | – | 75–90% | no significant inhibition | completely blocked | ~60 | 20 to 100 µM | no significant inhibition | –
